Where a name gives a salt, the structure may show the parent alone.

For this test, the target named is T1, human HSD-1 (recombinant HSD-1) (Homo sapiens, UniProt P28845).
T1 construct: made in house
T1 sequence (P28845 whole entry): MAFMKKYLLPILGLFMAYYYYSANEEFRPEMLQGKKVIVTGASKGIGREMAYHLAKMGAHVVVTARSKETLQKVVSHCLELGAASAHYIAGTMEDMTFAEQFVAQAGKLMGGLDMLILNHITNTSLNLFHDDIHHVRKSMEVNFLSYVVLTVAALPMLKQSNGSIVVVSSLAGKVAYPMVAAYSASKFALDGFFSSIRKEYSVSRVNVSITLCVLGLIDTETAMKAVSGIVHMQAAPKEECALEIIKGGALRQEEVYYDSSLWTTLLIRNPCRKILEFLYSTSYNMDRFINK
Description: HSD-1 activity inhibitory action in vitro (SPA, conversion of cortisone to cortisol). Format: biochemical. Conditions: recombinant human HSD-1 expressed using baculovirus system; 10 nM 3H cortisone, 500 μM NADPH; room temperature 90 to 120 min; read-out: hHSD1 (IC50 (nM)).
Take `COC(=O)c1ccc(N2CCC(n3ncc(C(=O)N4CCC(c5ccccc5C(F)(F)F)C4)c3C3CC3)CC2)nc1` (centres unmarked) [Example 178, methyl 6-(4-{5-cyclopropyl-4-[3-(2-trifluoromethylphenyl)pyrrolidine-1-carbonyl]pyrazol-1-yl}piperidin-1-yl)nicotinate]: the IC50 (in general, the concentration that inhibits the measured activity by half) was < 30 nM. Take `O=C(NC1(CO)CC1)N1CCC(n2ncc(C(=O)N3CC[C@@H](c4ccccc4C(F)(F)F)C3)c2C2CC2)CC1` [Example 7, 1-{5-cyclopropyl-1-[1-(1-hydroxymethylcyclopropylcarbamoyl)piperidin-4-yl]-1H-pyrazole-4-carbonyl}-[(S)-3-(2-trifluoromethylphenyl)]pyrrolidine]: the IC50 is < 30 nM. Turning to `O=C(OC1CCNCC1)N1CCC(n2ncc(C(=O)N3CC[C@@H](c4ccccc4C(F)(F)F)C3)c2C2CC2)CC1` [Example 61, 1-{5-cyclopropyl-1-[1-(piperidin-4-yl-oxycarbonyl)piperidin-4-yl]-1H-pyrazole-4-carbonyl}-[(S)-3-(2-trifluoromethylphenyl)]pyrrolidine hydrochloride], the IC50 was < 30 nM. For `O=C(c1cnn(C2CCN(C3CC3)CC2)c1C1CC1)N1CC[C@@H](c2ccccc2C(F)(F)F)C1` [Example 99, 1-[5-cyclopropyl-1-(1-cyclopropylpiperidin-4-yl)-1H-pyrazole-4-carbonyl]-[(S)-3-(2-trifluoromethylphenyl)]pyrrolidine hydrochloride], the IC50 is < 30 nM.

For `O=C(c1cnn(C2CCN(C(=O)N3CCC[C@H]3CO)CC2)c1C1CC1)N1CC[C@@H](c2ccccc2C(F)(F)F)C1` [Example 27, 1-(5-cyclopropyl-1-{1-[(S)-2-hydroxymethylpyrrolidine-1-carbonyl]piperidin-4-yl}-1H-pyrazole-4-carbonyl)-[(S)-3-(2-trifluoromethylphenyl)]pyrrolidine], the IC50 is < 30 nM. As for `O=C(Nc1ccc(Cl)nc1Cl)N1CCC(n2ncc(C(=O)N3CCC(c4ccccc4C(F)(F)F)C3)c2C2CC2)CC1` (centres unmarked) [Example 150, 1-{5-cyclopropyl-1-[1-(2,6-dichloropyridin-3-ylcarbamoyl)piperidin-4-yl]-1H-pyrazole-4-carbonyl}-3-(2-trifluoromethylphenyl)pyrrolidine], the figure is < 30 nM; as for `CS(=O)(=O)NCC(=O)N1CCC(n2ncc(C(=O)N3CC[C@@H](c4ccccc4C(F)(F)F)C3)c2C2CC2)CC1` [Example 90, 1-{5-cyclopropyl-1-[1-(2-methanesulfonylaminoacetyl)piperidin-4-yl]-1H-pyrazole-4-carbonyl}-[(S)-3-(2-trifluoromethylphenyl)]pyrrolidine], < 30 nM; as for `NC(=O)c1ccc(N2CCC(n3ncc(C(=O)N4CCC(c5ccccc5C(F)(F)F)C4)c3C3CC3)CC2)nc1` (centres unmarked) [Example 167, 1-{1-[1-(5-carbamoyl-pyridin-2-yl)piperidin-4-yl]-5-cyclopropyl-1H-pyrazole-4-carbonyl}-3-(2-trifluoromethylphenyl)pyrrolidine], < 30 nM. Turning to `CC1(NC(=O)N2CCC(n3ncc(C(=O)N4CC[C@@H](c5ccccc5C(F)(F)F)C4)c3C3CC3)CC2)CC1` [Example 126, 1-{5-cyclopropyl-1-[1-(1-methylcyclopropylcarbamoyl)piperidin-4-yl]-1H-pyrazole-4-carbonyl}-[(S)-3-(2-trifluoromethylphenyl)]pyrrolidine], the IC50 is < 30 nM. For the compound `CC1(C(=O)N2CCC(n3ncc(C(=O)N4CC[C@@H](c5ccccc5C(F)(F)F)C4)c3C3CC3)CC2)CC1` [Example 69, 1-{5-cyclopropyl-1-[1-(1-methylcyclopropanecarbonyl)piperidin-4-yl]-1H-pyrazole-4-carbonyl}-[(S)-3-(2-trifluoromethylphenyl)]pyrrolidine], the IC50 was < 30 nM. In the case of `O=C(NCC(=O)N1CCC(n2ncc(C(=O)N3CC[C@@H](c4ccccc4C(F)(F)F)C3)c2C2CC2)CC1)C1CC1` [Example 88, 1-{1-[1-(2-cyclopropanecarbonylaminoacetyl)piperidin-4-yl]-5-cyclopropyl-1H-pyrazole-4-carbonyl}-[(S)-3-(2-trifluoromethylphenyl)]pyrrolidine], the IC50 is < 30 nM.

For the compound `CC(=O)NC1CCN(C(=O)N2CCC(n3ncc(C(=O)N4CC[C@@H](c5ccccc5C(F)(F)F)C4)c3C3CC3)CC2)CC1` [Example 39, 1-{1-[1-(4-acetylaminopiperidine-1-carbonyl)piperidin-4-yl]-5-cyclopropyl-1H-pyrazole-4-carbonyl}-[(S)-3-(2-trifluoromethylphenyl)]pyrrolidine], the IC50 is < 30 nM. Turning to `CN(C)C1CCN(C(=O)N2CCC(n3ncc(C(=O)N4CC[C@@H](c5ccccc5C(F)(F)F)C4)c3C3CC3)CC2)C1` (stereo partly drawn) [Example 41, 1-{5-cyclopropyl-1-[1-(3-dimethylaminopyrrolidine-1-carbonyl)piperidin-4-yl]-1H-pyrazole-4-carbonyl}-[(S)-3-(2-trifluoromethylphenyl)]pyrrolidine hydrochloride], the IC50 was < 30 nM.

Take `O=C(c1cnn(C2CCNCC2)c1C1CC1)N1CC[C@@H](c2ccccc2C(F)(F)F)C1` [Example 2, 1-[5-cyclopropyl-1-(piperidin-4-yl)-1H-pyrazole-4-carbonyl]-[(S)-3-(2-trifluoromethylphenyl)]pyrrolidine hydrochloride]: the IC50 is < 30 nM.

As to `CC(C)(CO)C(=O)N1CCC(n2ncc(C(=O)N3CC[C@@H](c4ccccc4C(F)(F)F)C3)c2C2CC2)CC1` [Example 76, 1-{5-cyclopropyl-1-[1-(3-hydroxy-2,2-dimethylpropionyl)piperidin-4-yl]-1H-pyrazole-4-carbonyl}-[(S)-3-(2-trifluoromethylphenyl)]pyrrolidine], the IC50 is < 30 nM. The figure for `O=C(O)c1ccc(N2CCC(n3ncc(C(=O)N4CCC(c5ccccc5C(F)(F)F)C4)c3C3CC3)CC2)cc1` (centres unmarked) [Example 113, 4-(4-{5-cyclopropyl-4-[3-(2-trifluoromethylphenyl)pyrrolidine-1-carbonyl]pyrazol-1-yl}piperidin-1-yl)benzoic acid] is < 30 nM. The figure for `NC1CCN(C(=O)N2CCC(n3ncc(C(=O)N4CC[C@@H](c5ccccc5C(F)(F)F)C4)c3C3CC3)CC2)CC1` [Example 35, 1-{1-[1-(4-aminopiperidine-1-carbonyl)piperidin-4-yl]-5-cyclopropyl-1H-pyrazole-4-carbonyl}-[(S)-3-(2-trifluoromethylphenyl)]pyrrolidine hydrochloride] is < 30 nM; for `O=C(OCCN1CCCCC1)N1CCC(n2ncc(C(=O)N3CC[C@@H](c4ccccc4C(F)(F)F)C3)c2C2CC2)CC1` [Example 60, 1-{5-cyclopropyl-1-[1-(2-piperidin-1-yl-ethoxycarbonyl)piperidin-4-yl]-1H-pyrazole-4-carbonyl}-[(S)-3-(2-trifluoromethylphenyl)]pyrrolidine hydrochloride] it is < 30 nM. As for `O=C(c1cnn(C2CCN(C(=O)N3CCC(F)(F)C3)CC2)c1C1CC1)N1CC[C@@H](c2ccccc2C(F)(F)F)C1` [Example 19, 1-{5-cyclopropyl-1-[1-(3,3-difluoropyrrolidine-1-carbonyl)piperidin-4-yl]-1H-pyrazole-4-carbonyl}-[(S)-3-(2-trifluoromethylphenyl)]pyrrolidine], the figure is < 30 nM. As for `O=C(c1cnn(C2CCN(C(=O)N3CC(F)(F)C(F)(F)C3)CC2)c1C1CC1)N1CC[C@@H](c2ccccc2C(F)(F)F)C1` [Example 48, 1-{5-cyclopropyl-1-[1-(3,3,4,4-tetrafluoropyrrolidine-1-carbonyl)piperidin-4-yl]-1H-pyrazole-4-carbonyl}-[(S)-3-(2-trifluoromethylphenyl)]pyrrolidine], the IC50 was < 30 nM. As for `CN1CCC(NC(=O)N2CCC(n3ncc(C(=O)N4CC[C@@H](c5ccccc5C(F)(F)F)C4)c3C3CC3)CC2)CC1` [Example 42, 1-{5-cyclopropyl-1-[1-(1-methylpiperidin-4-yl-carbamoyl)piperidin-4-yl]-1H-pyrazole-4-carbonyl}-[(S)-3-(2-trifluoromethylphenyl)]pyrrolidine hydrochloride], the figure is < 30 nM; as for `O=C(NC1(CO)CCCC1)N1CCC(n2ncc(C(=O)N3CC[C@@H](c4ccccc4C(F)(F)F)C3)c2C2CC2)CC1` [Example 54, 1-{5-cyclopropyl-1-[1-(1-hydroxymethylcyclopentylcarbamoyl)piperidin-4-yl]-1H-pyrazole-4-carbonyl}-[(S)-3-(2-trifluoromethylphenyl)]pyrrolidine], < 30 nM.

As for `CC(C)C(=O)NCC(=O)N1CCC(n2ncc(C(=O)N3CC[C@@H](c4ccccc4C(F)(F)F)C3)c2C2CC2)CC1` [Example 87, 1-{5-cyclopropyl-1-[1-(2-isobutyrylaminoacetyl)piperidin-4-yl]-1H-pyrazole-4-carbonyl}-[(S)-3-(2-trifluoromethylphenyl)]pyrrolidine], the IC50 is < 30 nM. As for `CC(C)(CO)NC(=O)N1CCC(n2ncc(C(=O)N3CC[C@@H](c4ccccc4C(F)(F)F)C3)c2C2CC2)CC1` [Example 9, 1-{5-cyclopropyl-1-[1-(2-hydroxy-1,1-dimethylethylcarbamoyl)piperidin-4-yl]-1H-pyrazole-4-carbonyl}-[(S)-3-(2-trifluoromethylphenyl)]pyrrolidine], the figure is < 30 nM; as for `O=C(Nc1ccccc1F)N1CCC(n2ncc(C(=O)N3CC[C@@H](c4ccccc4C(F)(F)F)C3)c2C2CC2)CC1` [Example 124, 1-{5-cyclopropyl-1-[1-(2-fluorophenylcarbamoyl)piperidin-4-yl]-1H-pyrazole-4-carbonyl}-[(S)-3-(2-trifluoromethylphenyl)]pyrrolidine], < 30 nM; as for `CC(=O)NCC(=O)N1CCC(n2ncc(C(=O)N3CC[C@@H](c4ccccc4C(F)(F)F)C3)c2C2CC2)CC1` [Example 68, 1-{1-[1-(2-acetylaminoacetyl)piperidin-4-yl]-5-cyclopropyl-1H-pyrazole-4-carbonyl}-[(S)-3-(2-trifluoromethylphenyl)]pyrrolidine], < 30 nM.

These data come from patent US20100010219A1, “METHOD FOR PRODUCING PYRROLIDINE COMPOUND” (JAPAN TOBACCO INC., priority 2006, published 2010).
